The text below walks through data of patent publication US20230271954A1 (Gossamer Bio Services, Inc., priority 2020, published 2023).

Assay [1] has as its target DGKα (Homo sapiens, UniProt P23743). Briefly: DGKα biochemical assay (ADP-Glo). The note with it: read-out: DGK α IC50. The essentials:
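ADP-Glo kinase assay using OAG/PS (1:2) lipid substrate, sonicated, in HEPES pH 7.0 buffer with MgCl2, CaCl2, DTT, BSA, Triton X-100. Enzyme preincubated with compound 30 min at RT; substrate with ATP (DGKα: 400 μM) added, 45 min RT. Luminescence read; % inhibition vs DMSO and no-enzyme controls.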
(In general: ADP-Glo first removes unused ATP, then detects ADP through luciferase.)

In assay [2] the target is T1, DGKζ (Homo sapiens, UniProt Q13574).
T1 construct: purchased Carna 12-110
T1 sequence (Q13574 1-929 isoform Q13574-4): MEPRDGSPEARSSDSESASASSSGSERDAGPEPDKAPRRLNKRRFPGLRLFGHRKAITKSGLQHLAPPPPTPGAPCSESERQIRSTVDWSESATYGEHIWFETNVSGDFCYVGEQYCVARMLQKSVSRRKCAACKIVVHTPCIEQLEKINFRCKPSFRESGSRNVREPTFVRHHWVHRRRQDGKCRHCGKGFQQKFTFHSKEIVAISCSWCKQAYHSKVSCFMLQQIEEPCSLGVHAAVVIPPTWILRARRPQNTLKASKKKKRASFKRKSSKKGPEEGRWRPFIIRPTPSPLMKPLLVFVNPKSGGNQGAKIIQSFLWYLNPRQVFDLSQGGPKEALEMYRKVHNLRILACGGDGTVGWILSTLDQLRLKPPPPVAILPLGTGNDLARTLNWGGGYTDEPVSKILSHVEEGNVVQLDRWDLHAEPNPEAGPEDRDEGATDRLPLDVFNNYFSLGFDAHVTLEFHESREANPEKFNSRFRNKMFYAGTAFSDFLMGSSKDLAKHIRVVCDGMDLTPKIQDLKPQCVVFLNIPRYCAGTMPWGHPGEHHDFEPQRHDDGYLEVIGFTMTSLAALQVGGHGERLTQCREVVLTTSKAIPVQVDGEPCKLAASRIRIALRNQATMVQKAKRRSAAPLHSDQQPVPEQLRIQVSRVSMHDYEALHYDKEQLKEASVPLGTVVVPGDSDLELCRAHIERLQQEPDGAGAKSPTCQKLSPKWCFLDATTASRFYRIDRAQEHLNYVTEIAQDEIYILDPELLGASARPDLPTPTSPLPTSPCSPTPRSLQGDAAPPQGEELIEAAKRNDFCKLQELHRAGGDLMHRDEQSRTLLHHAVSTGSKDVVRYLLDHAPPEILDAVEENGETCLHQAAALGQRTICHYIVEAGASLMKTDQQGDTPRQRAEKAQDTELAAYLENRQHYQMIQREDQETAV
Briefly: DGKζ biochemical assay (ADP-Glo). The note with it: read-out: DGK ζ IC50.

pIC50: −log10 of the molar value.

DGKα, sequence (P23743 whole entry): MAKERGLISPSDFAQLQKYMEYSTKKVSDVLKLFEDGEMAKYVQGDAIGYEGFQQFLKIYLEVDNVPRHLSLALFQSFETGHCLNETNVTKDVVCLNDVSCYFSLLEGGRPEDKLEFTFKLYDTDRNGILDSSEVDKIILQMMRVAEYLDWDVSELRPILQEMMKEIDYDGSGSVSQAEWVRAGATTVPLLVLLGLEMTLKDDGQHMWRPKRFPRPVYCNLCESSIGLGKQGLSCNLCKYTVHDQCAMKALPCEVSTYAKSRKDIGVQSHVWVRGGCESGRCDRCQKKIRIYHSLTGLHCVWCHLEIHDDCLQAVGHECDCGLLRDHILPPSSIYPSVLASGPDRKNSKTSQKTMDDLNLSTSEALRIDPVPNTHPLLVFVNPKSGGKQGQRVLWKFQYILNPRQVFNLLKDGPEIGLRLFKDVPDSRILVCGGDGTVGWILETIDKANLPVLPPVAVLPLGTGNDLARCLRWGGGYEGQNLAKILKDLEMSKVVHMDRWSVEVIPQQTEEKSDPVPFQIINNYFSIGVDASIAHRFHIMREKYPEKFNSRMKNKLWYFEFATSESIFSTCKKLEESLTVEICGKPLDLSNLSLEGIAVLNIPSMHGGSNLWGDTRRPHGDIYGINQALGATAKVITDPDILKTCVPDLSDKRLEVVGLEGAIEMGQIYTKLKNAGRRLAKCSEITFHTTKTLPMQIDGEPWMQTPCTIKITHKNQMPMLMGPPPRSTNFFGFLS

`Cn1c(=O)c(C#N)c(N(C)[C@H]2CC[C@H](N(CC3CC3)c3ccc(F)c(CN4CCOCC4)c3)CC2)c2nc(C#N)ccc21` [Example 174, trans-8-((-4-((cyclopropylmethyl)(4-fluoro-3-(morpholinomethyl)phenyl)amino)cyclohexyl) (methyl)amino)-5-methyl-6-oxo-5,6-dihydro-1,5-naphthyridine-2,7-dicarbonitrile]: the pIC50 in assay [1] and in assay [2] was 6.00 to 7.00 each time.

For `Cc1cc2c(cc1N(CC1CCC1)[C@H]1CC[C@H](N(C)c3c(C#N)c(=O)n(C)c4ccc(C#N)nc34)CC1)OCO2` [Example 146, trans-8-((4-((cyclobutylmethyl)(6-methylbenzo[d] [1,3]dioxol-5-yl)amino)cyclohexyl)(methyl)amino)-5-methyl-6-oxo-5,6-dihydro-1,5-naphthyridine-2,7-dicarbonitrile], the pIC50 in assay [1] and in assay [2] was 6.00 to 7.00 each time.

As for `Cn1c(=O)c(C#N)c(N(C)[C@H]2CC[C@@H](N(CC3CCC3)c3cccc4c3OCO4)CC2)c2nc(C#N)ccc21` [Example 109, cis-8-((-4-(benzo[d][1,3]dioxol-4-yl(cyclobutylmethyl)amino)cyclohexyl)(methyl)amino)-5-methyl-6-oxo-5,6-dihydro-1,5-naphthyridine-2,7-dicarbonitrile], the negative-log IC50 (pIC50) in assay [1] and in assay [2] was 7.00 to 8.00 throughout.

Consider `Cc1cc(F)c(F)cc1N(CC1CCC1)[C@H]1CC[C@H](N(C)c2c(C#N)c(=O)n(C)c3ccc(Cl)nc23)CC1` [Example 137, trans-6-chloro-4-((4-((cyclobutylmethyl)(4,5-difluoro-2-methylphenyl)amino)cyclohexyl)(methyl)amino)-1-methyl-2-oxo-1,2-dihydro-1,5-naphthyridine-3-carbonitrile], for which the pIC50 in assay [1] and in assay [2] was not above 6.00 in each case.

As for `Cn1c(=O)cc(N(C)[C@H]2CC[C@@H](N(CC3CC3)c3ccc4c(c3)COC4)CC2)c2nc(C#N)ccc21` [Example 192, cis-8-((4-((cyclopropylmethyl)(1,3-dihydroisobenzofuran-5-yl)amino)cyclohexyl) (methyl)amino)-5-methyl-6-oxo-5,6-dihydro-1,5-naphthyridine-2-carbonitrile], the negative-log IC50 (pIC50) in assay [1] is 7.00 to 8.00; in assay [2], 6.00 to 7.00.

For the compound `Cc1cc(F)ccc1N(C[C@H]1CCOC1)[C@H]1CC[C@H](N(C)c2c(C#N)c(=O)n(C)c3ccc(C#N)nc23)CC1` [Example 165, trans-8-((-4-((4-fluoro-2-methylphenyl)(((R)-tetrahydrofuran-3-yl)methyl)amino)cyclohexyl) (methyl)amino)-5-methyl-6-oxo-5,6-dihydro-1,5-naphthyridine-2,7-dicarbonitrile], the pIC50 in assay [1] and in assay [2] was 6.00 to 7.00 throughout.

In the case of `Cn1c(=O)c(C#N)c(N(C)[C@H]2CC[C@H](N(c3ccc(F)cc3)C3CCC3)CC2)c2nc(Cl)ccc21` [Example 20, trans-6-chloro-4-((4-(cyclobutyl(4-fluorophenyl)amino)cyclohexyl)(methyl)amino)-1-methyl-2-oxo-1,2-dihydro-1,5-naphthyridine-3-carbonitrile], the pIC50 in assay [1] was 7.00 to 8.00; in assay [2], not above 6.00.

As to `CN1C(=O)COc2ccc(N(CC3CC3)[C@H]3CC[C@@H](N(C)c4cc(=O)n(C)c5ccc(C#N)nc45)CC3)cc21` [Example 197, cis-8-((4-((cyclopropylmethyl)(4-methyl-3-oxo-3,4-dihydro-2H-benzo[b][1,4]oxazin-6-yl)amino)cyclohexyl)(methyl)amino)-5-methyl-6-oxo-5,6-dihydro-1,5-naphthyridine-2-carbonitrile], the pIC50 in assay [1] is 6.00 to 7.00; in assay [2] it was not above 6.00.

For `COc1cc(N(C2CC2)[C@H]2CC[C@@H](N(C)c3c(C#N)c(=O)n(C)c4ccc(C#N)nc34)CC2)ccc1F` [Example 65], the negative logarithm of the IC50 (pIC50) in assay [1] and in assay [2] was 7.00 to 8.00 in each case.

In the case of `COc1cccc(N(CC2CC2)[C@H]2CC[C@H](N(C)c3c(C#N)c(=O)n(C)c4ccc(C#N)nc34)CC2)c1` [Example 29, trans-8-((4-((cyclopropylmethyl)(3-methoxyphenyl)amino)cyclohexyl)(methyl)amino)-5-methyl-6-oxo-5,6-dihydro-1,5-naphthyridine-2,7-dicarbonitrile], the pIC50 in assay [1] is 6.00 to 7.00; in assay [2], not above 6.00.

Take `Cn1c(=O)c(C#N)c(N(C)[C@H]2CC[C@@H](N(C[C@H]3CCCOC3)c3ccc(F)cc3)CC2)c2nc(C#N)ccc21` [Example 68]: the negative-log IC50 (pIC50) is more than 8.00 in assay [1] and 7.00 to 8.00 in assay [2].

For the compound `COc1cc(N(C2CC2)[C@H]2CC[C@@H](N(C)c3cc(=O)n(C)c4ccc(C#N)nc34)CC2)ccc1F` [Example 83], the pIC50 in assay [1] and in assay [2] was 6.00 to 7.00 each time.

On to `Cn1c(=O)c(C#N)c(N(C)[C@H]2CC[C@@H](N(c3ccc(F)cc3)C3CCC3)CC2)c2nc(Cl)ccc21` [Example 10, cis-6-chloro-4-((4-(cyclobutyl(4-fluorophenyl)amino)cyclohexyl)(methyl)amino)-1-methyl-2-oxo-1,2-dihydro-1,5-naphthyridine-3-carbonitrile], for which the negative logarithm of the IC50 (pIC50) is more than 8.00 in assay [1] and 6.00 to 7.00 in assay [2].

As for `Cc1nc(F)ccc1N(CC1CCOC1)[C@H]1CC[C@H](N(C)c2c(C#N)c(=O)n(C)c3ccc(C#N)nc23)CC1` (stereo partly drawn) [Example 130, trans-8-((-4-((6-fluoro-2-methylpyridin-3-yl) ((tetrahydrofuran-3-yl)methyl)amino)cyclohexyl) (methyl)amino)-5-methyl-6-oxo-5,6-dihydro-1,5-naphthyridine-2,7-dicarbonitrile], the pIC50 in assay [1] and in assay [2] was 6.00 to 7.00 each time.

Consider `COc1ccc(N(C2CC2)[C@H]2CC[C@H](N(C)c3c(C#N)c(=O)n(C)c4ccc(Cl)nc34)CC2)cc1` [Example 3E, trans-6-chloro-4-((4-(cyclopropyl(4-methoxyphenyl)amino)cyclohexyl)(methyl)amino)-1-methyl-2-oxo-1,2-dihydro-1,5-naphthyridine-3-carbonitrile], for which the values for the pIC50 in assay [1] and in assay [2] were 7.00 to 8.00 and not above 6.00, respectively.

Regarding `Cn1c(=O)c(C#N)c(N(C)[C@H]2CC[C@H](N(CC3CC3)c3ccc4c(c3)OCO4)CC2)c2nc(C#N)ccc21` [Example 79], the results for the negative logarithm of the IC50 (pIC50) in assay [1] and in assay [2] were not above 6.00 and 6.00 to 7.00, respectively.

As to `Cn1c(=O)cc(N(C)[C@H]2CC[C@H](N(CC3COC3)c3ccc(F)cc3O)CC2)c2nc(C#N)ccc21` [Example 3BB, trans-8-((4-((4-fluoro-2-hydroxyphenyl)(oxetan-3-ylmethyl)amino)cyclohexyl)(methyl)amino)-5-methyl-6-oxo-5,6-dihydro-1,5-naphthyridine-2-carbonitrile], the pIC50 in assay [1] and in assay [2] was not above 6.00 in each case.

Take `COc1cccc(N(CC2CC2)[C@H]2CC[C@@H](N(C)c3c(C#N)c(=O)n(C)c4cccnc34)CC2)c1` [Example 15, cis-4-((4-((cyclopropylmethyl)(3-methoxyphenyl)amino)cyclohexyl)(methyl)amino)-1-methyl-2-oxo-1,2-dihydro-1,5-naphthyridine-3-carbonitrile]: the negative-log IC50 (pIC50) was 6.00 to 7.00 in assay [1] and not above 6.00 in assay [2].

One may read the pIC50 as the IC50 on a negative log10 scale, so that one unit is a factor of ten.
